In PubChem BioAssay AID330 (DTP/NCI, 2004):
“And” between values parts separate entries of the source, which are not always exact repeats. Equal values may be shown once. Inconclusive results and toxic doses are left out.

Tested on: P388 leukemia ip, CD2F1 mice, survival T/C
Assay: NCI In Vivo Anticancer Drug Screen. Data for tumor model P388 Leukemia (intraperitoneal) in CD2F1 (CDF1) mice
Conditions: endpoint: median survival time, higher = longer survival
Procedure, shortened: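 Mice carrying the transplanted tumor received test compound or vehicle. Survival was recorded in each group, and the value is the treated-group measurement divided by that of the vehicle-treated control group.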

[1] = dose: 50.0 mg/kg/injection, schedule: Q01DX009 (ip), vehicle: saline with Tween-80
[2] = dose: 100.0 mg/kg/injection, schedule: Q01DX009 (ip), vehicle: saline with Tween-80
[3] = dose: 200.0 mg/kg/injection, schedule: Q01DX009 (ip), vehicle: saline with Tween-80
[4] = dose: 50.0 mg/kg/injection, schedule: Q01DX005 (ip), vehicle: Klucel (hydroxypropylcellulose) (HPC)
[5] = dose: 100.0 mg/kg/injection, schedule: Q01DX005 (ip), vehicle: Klucel (hydroxypropylcellulose) (HPC)
[6] = dose: 200.0 mg/kg/injection, schedule: Q04DX003 (ip), vehicle: saline with Tween-80
[7] = dose: 400.0 mg/kg/injection, schedule: Q04DX003 (ip), vehicle: saline with Tween-80
[8] = dose: 50.0 mg/kg/injection, schedule: Q01DX009 (ip), vehicle: Klucel (hydroxypropylcellulose) (HPC)
[9] = dose: 100.0 mg/kg/injection, schedule: Q01DX009 (ip), vehicle: Klucel (hydroxypropylcellulose) (HPC)
[10] = dose: 200.0 mg/kg/injection, schedule: Q01DX009 (ip), vehicle: Klucel (hydroxypropylcellulose) (HPC)
[11] = dose: 50.0 mg/kg/injection, schedule: Q01DX005 (ip), vehicle: saline with Tween-80
[12] = dose: 100.0 mg/kg/injection, schedule: Q01DX005 (ip), vehicle: saline with Tween-80
[13] = dose: 200.0 mg/kg/injection, schedule: Q01DX005 (ip), vehicle: saline with Tween-80
[14] = dose: 200.0 mg/kg/injection, schedule: Q01DX005 (ip), vehicle: Klucel (hydroxypropylcellulose) (HPC)

## COc1cccc2c1C(=O)c1c(O)c3c(c(O)c1C2=O)C[C@@](O)(C(C)O)C[C@@H]3OC1CC(N)C(O)C(C)O1 (some centres not stated)
dose: 1.08 mg/kg/injection, schedule: Q01DX009 (ip), vehicle: saline
  T/C: 168 % of control
dose: 1.8 mg/kg/injection, schedule: Q01DX009 (ip), vehicle: saline
  T/C: 163 % of control and 172 % of control
dose: 3.0 mg/kg/injection, schedule: Q01DX009 (ip), vehicle: saline
  T/C: 159 % of control and 173 % of control
dose: 3.0 mg/kg/injection, schedule: Q04DX003 (ip), vehicle: saline
  T/C: 150 % of control
dose: 5.0 mg/kg/injection, schedule: Q01DX009 (ip), vehicle: saline
  T/C: 173 % of control and 195 % of control
dose: 5.0 mg/kg/injection, schedule: Q04DX003 (ip), vehicle: saline
  T/C: 154 % of control
dose: 8.0 mg/kg/injection, schedule: Q01DX001 (ip), vehicle: saline
  T/C: 154 % of control
dose: 8.0 mg/kg/injection, schedule: Q01DX009 (ip), vehicle: saline
  T/C: 150 % of control
dose: 8.0 mg/kg/injection, schedule: Q04DX003 (ip), vehicle: saline
  T/C: 163 % of control
dose: 13.3 mg/kg/injection, schedule: Q01DX009 (ip), vehicle: saline
  T/C: 90 % of control
dose: 13.3 mg/kg/injection, schedule: Q04DX003 (ip), vehicle: saline
  T/C: 172 % of control
dose: 22.2 mg/kg/injection, schedule: Q01DX001 (ip), vehicle: saline
  T/C: 181 % of control
dose: 37.0 mg/kg/injection, schedule: Q01DX001 (ip), vehicle: saline
  T/C: 163 % of control
dose: 37.0 mg/kg/injection, schedule: Q04DX003 (ip), vehicle: saline
  T/C: 100 % of control
dose: 61.7 mg/kg/injection, schedule: Q01DX001 (ip), vehicle: saline
  T/C: 90 % of control

## CNC(=O)O[C@H]1C(=O)O[C@@H]2C[C@H]3C(C)=C(O)C(=O)C[C@]3(C)[C@H]3[C@@H](O)[C@H](O)[C@@]4(C(=O)OC)OC[C@]32[C@@H]14
dose: 1.0 mg/kg/injection, schedule: Q01DX005 (ip), vehicle: Klucel (hydroxypropylcellulose) (HPC)
  T/C: 105 % of control
dose: 2.0 mg/kg/injection, schedule: Q01DX005 (ip), vehicle: Klucel (hydroxypropylcellulose) (HPC)
  T/C: 105 % of control
dose: 4.0 mg/kg/injection, schedule: Q01DX005 (ip), vehicle: Klucel (hydroxypropylcellulose) (HPC)
  T/C: 102 % of control and 108 % of control
dose: 8.0 mg/kg/injection, schedule: Q01DX005 (ip), vehicle: Klucel (hydroxypropylcellulose) (HPC)
  T/C: 102 % of control
dose: 16.0 mg/kg/injection, schedule: Q01DX005 (ip), vehicle: Klucel (hydroxypropylcellulose) (HPC)
  T/C: 101 % of control
dose: 125.0 micrograms/kg/injection, schedule: Q01DX005 (ip), vehicle: Klucel (hydroxypropylcellulose) (HPC)
  T/C: 103 % of control
dose: 250.0 micrograms/kg/injection, schedule: Q01DX005 (ip), vehicle: Klucel (hydroxypropylcellulose) (HPC)
  T/C: 95 % of control
dose: 500.0 micrograms/kg/injection, schedule: Q01DX005 (ip), vehicle: Klucel (hydroxypropylcellulose) (HPC)
  T/C: 95 % of control
dose: 1000.0 micrograms/kg/injection, schedule: Q01DX005 (ip), vehicle: Klucel (hydroxypropylcellulose) (HPC)
  T/C: 99 % of control

## Cc1ncc(C(N)=S)c(N)n1
[1]
  T/C: 103 % of control
[2]
  T/C: 108 % of control
[3]
  T/C: 105 % of control

## O=C1OCC2CC3C4C=CC(C4)C3C12 (configuration not stated)
[4]
  T/C: 103 % of control
[5]
  T/C: 93 % of control

## c1ccc(-c2nnn(-n3nnc(-c4ccccc4)n3)n2)cc1
dose: 100.0 mg/kg/injection, schedule: Q04DX003 (ip), vehicle: saline with Tween-80
  T/C: 97 % of control
[6]
  T/C: 100 % of control
[7]
  T/C: 97 % of control

## O=P(Oc1ccccc1)(Oc1ccccc1)C(Nc1ccc(C(F)(F)F)cc1)c1ccccc1 (configuration not stated)
[8]
  T/C: 99 % of control
[9]
  T/C: 93 % of control
[10]
  T/C: 86 % of control

## O=C(NCN1CCOCC1)Nc1ccccc1
[11]
  T/C: 115 % of control
[12]
  T/C: 115 % of control
[13]
  T/C: 112 % of control

## CC(=O)N(CC(=O)Nc1ccc(S(N)(=O)=O)cc1)C(C)C
[8]
  T/C: 100 % of control
[9]
  T/C: 99 % of control
[10]
  T/C: 92 % of control

## Nc1nnc2nc(C(C(=O)c3ccc(Cl)cc3Cl)c3nc4nnc(N)n4[nH]c3=O)c(=O)[nH]n12
[11]
  T/C: 92 % of control
[12]
  T/C: 100 % of control
[13]
  T/C: 100 % of control

## N#Cc1ccccc1NN=Nc1ccccc1-c1nc(N)nc(N)n1
dose: 12.0 mg/kg/injection, schedule: Q04DX003 (ip), vehicle: saline
  T/C: 113 % of control
dose: 25.0 mg/kg/injection, schedule: Q04DX003 (ip), vehicle: saline
  T/C: 113 % of control
dose: 50.0 mg/kg/injection, schedule: Q04DX003 (ip), vehicle: saline
  T/C: 181 % of control

## OCCOc1ccc2ccccc2c1-c1c(OCCOc2ccc3ccccc3c2-c2c(OCCO)ccc3ccccc23)ccc2ccccc12
dose: 100.0 mg/kg/injection, schedule: Q01DX001 (ip), vehicle: saline with Tween-80
  T/C: 96 % of control
dose: 200.0 mg/kg/injection, schedule: Q01DX001 (ip), vehicle: saline with Tween-80
  T/C: 88 % of control
dose: 400.0 mg/kg/injection, schedule: Q01DX001 (ip), vehicle: saline with Tween-80
  T/C: 92 % of control

## COc1ccc(/C=C/C(=O)c2ccc3c(c2)OCO3)cc1OC
dose: 12.5 mg/kg/injection, schedule: Q01DX009 (ip), vehicle: saline with Tween-80
  T/C: 98 % of control
dose: 25.0 mg/kg/injection, schedule: Q01DX009 (ip), vehicle: saline with Tween-80
  T/C: 98 % of control and 100 % of control
[1]
  T/C: 99 % of control and 101 % of control
[2]
  T/C: 100 % of control and 94 % of control
[3]
  T/C: 103 % of control and 93 % of control
[6]
  T/C: 109 % of control
dose: 300.0 mg/kg/injection, schedule: Q01DX009 (ip), vehicle: saline with Tween-80
  T/C: 93 % of control
dose: 400.0 mg/kg/injection, schedule: Q01DX009 (ip), vehicle: saline with Tween-80
  T/C: 100 % of control
[7]
  T/C: 109 % of control

## c1cc[c]([Sn]2([c]3ccccc3)[O]CCNCC[O]2)cc1
dose: 25.0 mg/kg/injection, schedule: Q01DX005 (ip), vehicle: saline
  T/C: 150 % of control
dose: 50.0 mg/kg/injection, schedule: Q01DX005 (ip), vehicle: saline
  T/C: 153 % of control
dose: 100.0 mg/kg/injection, schedule: Q01DX005 (ip), vehicle: saline
  T/C: 155 % of control and 160 % of control

## CCOc1c(N=Nc2ccc(C)cc2)c(C)nn1C(=S)S
dose: 60.0 mg/kg/injection, schedule: Q01DX005 (ip), vehicle: Klucel (hydroxypropylcellulose) (HPC)
  T/C: 96 % of control
dose: 120.0 mg/kg/injection, schedule: Q01DX005 (ip), vehicle: Klucel (hydroxypropylcellulose) (HPC)
  T/C: 105 % of control
dose: 240.0 mg/kg/injection, schedule: Q01DX005 (ip), vehicle: Klucel (hydroxypropylcellulose) (HPC)
  T/C: 97 % of control

## Cc1nc2[nH]ncc2c(=O)n1-c1ccccc1
[4]
  T/C: 97 % of control
[5]
  T/C: 99 % of control
[14]
  T/C: 100 % of control

## O=C(CCCl)Nc1cccc(/C=C/C(=O)c2ccccc2NC(=O)CCCl)c1
dose: 60.0 mg/kg/injection, schedule: Q01DX005 (ip), vehicle: saline with Tween-80
  T/C: 99 % of control
dose: 120.0 mg/kg/injection, schedule: Q01DX005 (ip), vehicle: saline with Tween-80
  T/C: 99 % of control
dose: 240.0 mg/kg/injection, schedule: Q01DX005 (ip), vehicle: saline with Tween-80
  T/C: 93 % of control

## COc1cccc2c1C(=O)c1c(O)c3c(c(O)c1C2=O)C[C@@](O)(C(C)=O)C[C@@H]3OC1CC(N2CCC(OC)CC2)C(O)C(C)O1 (some centres not stated)
dose: 0.39 mg/kg/injection, schedule: Q04DX003 (ip), vehicle: water
  T/C: 114 % of control
dose: 0.78 mg/kg/injection, schedule: Q04DX003 (ip), vehicle: water
  T/C: 104 % of control
dose: 1.56 mg/kg/injection, schedule: Q04DX003 (ip), vehicle: water
  T/C: 111 % of control and 114 % of control
dose: 6.25 mg/kg/injection, schedule: Q04DX003 (ip), vehicle: water
  T/C: 181 % of control and 217 % of control
dose: 12.5 mg/kg/injection, schedule: Q04DX003 (ip), vehicle: water
  T/C: 118 % of control

## NCCCCC(NC(=O)OCC1c2ccccc2-c2ccccc21)C(=O)O (configuration not stated)
[4]
  T/C: 99 % of control
[5]
  T/C: 99 % of control
[14]
  T/C: 109 % of control

## CC1=C(O)CC(/C(C)=C\Cl)OC1=O (configuration not stated)
dose: 100.0 mg/kg/injection, schedule: Q04DX002 (ip), vehicle: Klucel (hydroxypropylcellulose) (HPC)
  T/C: 101 % of control
dose: 200.0 mg/kg/injection, schedule: Q04DX002 (ip), vehicle: Klucel (hydroxypropylcellulose) (HPC)
  T/C: 98 % of control
dose: 400.0 mg/kg/injection, schedule: Q04DX002 (ip), vehicle: Klucel (hydroxypropylcellulose) (HPC)
  T/C: 104 % of control
